The supplement of paper PMC10307832

How the values were obtained:
Test in all cases: relative viability (nuclei count vs DMSO), 5 days (fraction); higher = more cells survive
[1] = compound: CC1=CC(=C(N1C2=CC=C(C=C2)Cl)C)C(=O)CN3CCCCC3 [IU1-47] + COc1cc2c(Oc3ccc(NC(=O)C4(C(=O)Nc5ccc(F)cc5)CC4)cc3F)ccnc2cc1OCCCN1CCOCC1 [Foretinib] (partner 0.25 µM)
In short: (§1)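 Relative viability divides the nuclei count in treated wells by that in vehicle wells. Lung cancer cell lines were seeded in 1536-well plates, dosed by pin tool the next day, and fixed and stained after 5 days in one step with final 0.05% Triton X-100, 1% formaldehyde and 1 ug/ml Hoechst. Dosing was a single drug or a fixed anchor-drug dose plus five library-drug doses (not always all listed) in √10 steps, and values are medians of duplicate plates imaged at 4×.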

[2] = compound: CC1=CC(=C(N1C2=CC=C(C=C2)Cl)C)C(=O)CN3CCCCC3 [IU1-47] + Nc1ncn([C@H]2C[C@H](O)[C@@H](CO)O2)c(=O)n1 [Decitabine] (partner 2 µM)
In short: as §1

[3] = compound: Cc1nc(C(=O)NCC(=O)O)c(O)c2ccc(Oc3ccccc3)cc12 [FG-4592] + CC1(C)CCC(c2ccc(Cl)cc2)=C(CN2CCN(c3ccc(C(=O)NS(=O)(=O)c4ccc(N[C@H](CCN5CCOCC5)CSc5ccccc5)c(S(=O)(=O)C(F)(F)F)c4)cc3)CC2)C1 [Navitoclax] (partner 0.5 µM)
In short: as §1

[4] = compound: Cc1nc(C(=O)NCC(=O)O)c(O)c2ccc(Oc3ccccc3)cc12 [FG-4592] + Nc1ncn([C@H]2C[C@H](O)[C@@H](CO)O2)c(=O)n1 [Decitabine] (partner 2 µM)
In short: as §1

| Cell Line | relative viability ([1]; first compound 0.08 µM) | relative viability ([1]; first compound 0.253 µM) | relative viability ([1]; first compound 0.8 µM) | relative viability ([1]; first compound 8 µM) | relative viability ([2]; first compound 0.08 µM) | relative viability ([2]; first compound 0.253 µM) | relative viability ([2]; first compound 0.8 µM) | relative viability ([2]; first compound 2.53 µM) | relative viability ([2]; first compound 8 µM) | relative viability ([3]; first compound 0.08 µM) | relative viability ([3]; first compound 0.253 µM) | relative viability ([3]; first compound 0.8 µM) | relative viability ([3]; first compound 2.53 µM) | relative viability ([3]; first compound 8 µM) | relative viability ([4]; first compound 0.08 µM) | relative viability ([4]; first compound 0.253 µM) | relative viability ([4]; first compound 0.8 µM) | relative viability ([4]; first compound 2.53 µM) | relative viability ([4]; first compound 8 µM) | relative viability ([1]; first compound 2.53 µM) |
| --- | --- | --- | --- | --- | --- | --- | --- | --- | --- | --- | --- | --- | --- | --- | --- | --- | --- | --- | --- | --- |
| NCI-H1734 | 0.89 | 0.888 | 0.844 | 0.765 | 0.6 | 0.541 | 0.548 | 0.5 | 0.419 | 0.854 | 0.776 | 0.838 | 0.814 | 0.787 | 0.519 | 0.463 | 0.53 | 0.489 | 0.458 |  |
| NCI-H1755 | 0.932 | 0.926 | 0.961 | 0.934 | 0.712 | 0.694 | 0.653 | 0.797 | 0.766 | 0.989 | 0.977 | 0.937 | 0.997 | 1.01 | 0.697 | 0.773 | 0.736 | 0.679 | 0.689 | 0.973 |
| NCI-H1793 | 0.75 | 0.764 | 0.765 | 0.688 | 0.53 |  | 0.538 | 0.507 | 0.426 | 0.335 | 0.384 |  | 0.291 | 0.238 |  | 0.476 |  | 0.55 | 0.398 |  |
| NCI-H1915 | 1.12 | 1.12 | 1.15 | 1.1 | 0.269 | 0.256 | 0.27 | 0.25 | 0.247 | 0.744 | 0.733 | 0.838 | 0.778 | 0.786 | 0.271 | 0.28 | 0.284 | 0.255 | 0.252 |  |
| NCI-H1944 | 1.03 | 0.954 | 0.905 | 0.759 | 0.446 | 0.474 | 0.419 | 0.426 | 0.388 | 1.07 | 1.03 | 0.962 | 1.03 | 0.907 | 0.422 | 0.446 | 0.415 | 0.436 | 0.388 | 0.824 |
| NCI-H1975 | 0.967 | 0.949 | 0.971 | 0.858 | 0.397 | 0.381 | 0.585 | 0.361 | 0.378 | 1.21 | 1.1 | 1.29 | 1.1 | 1.06 | 0.378 | 0.363 | 0.426 | 0.406 | 0.404 | 1.1 |
| NCI-H1993 | 0.84 | 0.76 | 0.735 | 0.748 | 0.602 | 0.641 | 0.628 | 0.687 | 0.537 | 0.946 | 0.907 | 0.696 | 1.09 | 0.898 | 0.695 | 0.602 |  | 0.665 | 0.572 | 0.843 |
| NCI-H2009 | 1.24 | 1.25 | 1.18 | 1.23 | 0.36 | 0.448 | 0.366 | 0.382 | 0.406 | 1.2 | 1.18 | 1.21 | 1.05 | 1.22 | 0.406 | 0.339 | 0.381 | 0.343 | 0.349 | 1.22 |
| NCI-H2023 | 0.75 | 0.722 | 1 | 0.719 | 0.182 | 0.212 | 0.215 | 0.248 | 0.225 | 0.991 | 1 | 1.12 | 0.94 | 0.829 | 0.231 | 0.209 | 0.222 | 0.243 | 0.203 |  |
| NCI-H2085 | 0.922 | 1.19 | 0.926 | 0.767 | 0.54 | 0.549 | 0.566 | 0.519 | 0.478 | 1.18 | 1.09 | 1.1 | 1.15 | 1.08 | 0.554 | 0.493 | 0.51 | 0.597 | 0.545 | 0.922 |
| NCI-H2087 | 1.26 | 1.14 | 1.31 | 1.18 | 0.317 | 0.256 | 0.311 | 0.228 | 0.23 | 1.01 | 0.946 | 1.04 | 0.98 | 1.03 | 0.368 | 0.308 | 0.348 |  | 0.256 |  |
| NCI-H2126 | 1.28 | 1.17 | 1.22 | 1.03 | 0.564 | 0.584 | 0.599 | 0.544 | 0.583 | 0.825 | 0.773 | 0.817 | 0.875 | 0.807 | 0.54 | 0.541 | 0.543 | 0.578 | 0.578 | 0.723 |
| NCI-H2170 | 1.14 | 1.08 | 1.03 | 1.24 | 0.516 | 0.529 | 0.498 | 0.482 | 0.555 | 0.708 | 0.593 | 0.691 | 0.485 | 0.322 | 0.445 | 0.479 | 0.447 | 0.506 | 0.356 | 0.994 |
| NCI-H2347 | 0.707 | 0.605 | 0.843 | 1.1 | 0.662 | 0.663 | 0.609 | 0.615 | 0.581 | 0.862 |  | 0.648 | 0.804 | 0.897 | 0.665 | 0.523 | 0.629 | 0.581 | 0.613 | 1.17 |
| NCI-H2405 | 1.13 | 1.11 | 1 | 1.07 | 0.839 | 0.762 | 0.769 | 0.779 | 0.765 |  | 0.437 | 0.874 | 0.731 | 0.711 | 0.69 | 0.714 | 0.702 | 0.688 | 0.671 | 1.05 |
| NCI-H3122 |  | 0.94 | 1.02 | 0.976 | 0.416 | 0.402 | 0.517 | 0.491 | 0.449 | 1.03 | 0.978 | 0.997 | 1.03 | 1.05 | 0.405 | 0.476 | 0.332 | 0.48 | 0.362 | 1.07 |
| PC-3 [JPC-3] | 1.13 | 1.11 | 1.12 | 1.05 | 0.905 | 0.935 | 0.886 | 0.834 | 0.888 | 0.778 | 0.823 | 0.829 | 0.875 | 0.859 | 0.836 | 0.767 |  | 0.844 | 0.911 | 1.08 |
